Reference: ChEMBL document CHEMBL1759873, “Novel thiolactone-isatin hybrids as potential antimalarial and antitubercular agents” (Bioorg Med Chem Lett, 2011)
Values after ≈ are worked out from the molar mass of the structure shown.

Assays:
[1] = test system: Mycobacterium tuberculosis; assay: Antitubercular activity against Mycobacterium tuberculosis H37Rv by microplate alamar blue assay; format: functional
[2] = test system: Mycobacterium tuberculosis; assay: Antitubercular activity against Mycobacterium tuberculosis H37Rv at 1 ug/ml by BACTEC radiometric susceptibility assay; format: functional
[3] = Inhibition of Plasmodium falciparum W2 recombinant falcipain-2
Plasmodium falciparum = assay: Antiplasmodial activity against Plasmodium falciparum W2; format: functional, organism-based
[4] = test system: Mycobacterium tuberculosis; assay: Antitubercular activity against Mycobacterium tuberculosis H37Rv at 10 ug/ml by BACTEC radiometric susceptibility assay; format: functional
[5] = test system: Mycobacterium tuberculosis; assay: Antitubercular activity against Mycobacterium tuberculosis H37Rv by LORA assay; format: functional

Compound	MIC [1]	inhibition at 1 µg/mL [2]	IC50 [3]	IC50 (Plasmodium falciparum)	inhibition at 10 µg/mL [4]	MIC [5]
CC1=C2OCCCCN3C(=O)C(O)(c4cc(F)ccc43)C2(C)SC1=O (stereo not given)	> 128 µM	4.9%	> 100 µM	> 20 µM	1.3%	
CC1=C2OCCCCN3C(=O)C(O)(c4cc(Cl)ccc43)C2(C)SC1=O (stereo not given)	> 128 µM	13.4%	> 100 µM	> 20 µM	15.3%	
CC1=C2OCCCCN3C(=O)C(O)(c4ccccc43)C2(C)SC1=O (stereo not given)	> 128 µM	17%	> 100 µM	> 20 µM	18.1%	
O=C1C(=O)N(CCCCCCBr)c2ccccc21	97.6 µM (≈ 30.3 µg/mL)		> 100 µM	> 20 µM		108 µM (≈ 33.5 µg/mL)
CC1=C2OCCCCCCN3C(=O)C(O)(c4cc(Br)ccc43)C2(C)SC1=O (stereo not given)	> 128 µM	8.1%	83.4 µM	6.93 µM	-0.5%	
CC(C)C[C@H](NC(=O)[C@H]1O[C@@H]1C(=O)O)C(=O)NCCCCN=C(N)N [E-64]			0.0473 µM			
O=C1C(=O)N(CCCCBr)c2ccc(F)cc21	123 µM (≈ 36.9 µg/mL)		> 100 µM	> 20 µM		53.3 µM (≈ 16 µg/mL)
CC1=C(OCCN2C(=O)C(=O)c3cc(Br)ccc32)C(C)SC1=O (stereo not given)			31.7 µM	17.4 µM		
CC1=C2OCCCCCCN3C(=O)C(O)(c4cc(I)ccc43)C2(C)SC1=O (stereo not given)	> 128 µM	-34%	48.3 µM	6.92 µM	-40%	
CC1=C(OCCN2C(=O)C(=O)c3cc(C)ccc32)C(C)SC1=O (stereo not given)	> 128 µM	-12%	> 100 µM	> 20 µM	4%	
CC1=C2OCCCCCN3C(=O)C(O)(c4cc(Cl)ccc43)C2(C)SC1=O (stereo not given)	> 128 µM	0%	> 100 µM	> 20 µM	-15.2%	
CC1=C2OCCCCCN3C(=O)C(O)(c4cc(I)ccc43)C2(C)SC1=O (stereo not given)	> 128 µM	-39.7%	> 100 µM	> 20 µM	-40.7%	
O=[N+]([O-])c1cn2c(n1)OC[C@@H](OCc1ccc(OC(F)(F)F)cc1)C2 [PRETOMANID]	0.16 µM (≈ 0.0575 µg/mL)					3.3 µM (≈ 1.19 µg/mL)
CN[C@@H]1[C@H](O[C@H]2[C@H](O[C@H]3[C@H](O)[C@@H](O)[C@H](N=C(N)N)[C@@H](O)[C@@H]3N=C(N)N)O[C@@H](C)[C@]2(O)C=O)O[C@@H](CO)[C@H](O)[C@H]1O [STREPTOMYCIN]	0.43 µM (≈ 0.25 µg/mL)					
CC1=C2OCCCCN3C(=O)C(O)(c4cc([N+](=O)[O-])ccc43)C2(C)SC1=O (stereo not given)	> 128 µM	-3%	44.5 µM	> 20 µM	-5.1%	
CC1=C(OCCCN2C(=O)C(=O)c3ccccc32)C(C)SC1=O (stereo not given)	> 128 µM	-18.5%	> 100 µM	> 20 µM	14.9%	
CO[C@H]1/C=C/O[C@@]2(C)Oc3c(C)c(O)c4c(O)c(c(/C=N/N5CCN(C)CC5)c(O)c4c3C2=O)NC(=O)/C(C)=C\C=C\[C@H](C)[C@H](O)[C@@H](C)[C@@H](O)[C@@H](C)[C@H](OC(C)=O)[C@@H]1C [RIFAMPIN]	0.05 µM (≈ 0.0411 µg/mL)					2.4 µM (≈ 1.98 µg/mL)
CC1=C2OCCCCCCN3C(=O)C(O)(c4cc(F)ccc43)C2(C)SC1=O (stereo not given)	> 128 µM	-35%	> 100 µM	14 µM	-28%	
CC1=C2OCCCCN3C(=O)C(O)(c4cc(Br)ccc43)C2(C)SC1=O (stereo not given)	> 128 µM	-16.2%	> 100 µM	> 20 µM	5.1%	
CC1=C2OCCCCCCN3C(=O)C(O)(c4ccccc43)C2(C)SC1=O (stereo not given)	> 128 µM	9.4%	> 100 µM	11.5 µM	18.5%	
COc1c(N2C[C@@H]3CCCN[C@@H]3C2)c(F)cc2c(=O)c(C(=O)O)cn(C3CC3)c12 [MOXIFLOXACIN]	0.29 µM (≈ 0.116 µg/mL)					31.1 µM (≈ 12.5 µg/mL)
O=C1C(=O)N(CCCCBr)c2ccc(I)cc21	15.5 µM (≈ 6.32 µg/mL)		> 100 µM	> 20 µM		57.1 µM (≈ 23.3 µg/mL)
C=C/C(C)=C/[C@@]1(C)SC(=O)C(C)=C1O [THIOLACTOMYCIN]	> 128 µM	-3.8%	> 100 µM	> 20 µM	58.6%	
CC1=C(OCCCCCN2C(=O)C(=O)c3ccccc32)C(C)SC1=O (stereo not given)	> 128 µM	34.9%	58 µM	15.3 µM	34%	

Compound	MIC [1]	inhibition at 1 µg/mL [2]	IC50 [3]	IC50 (Plasmodium falciparum)	inhibition at 10 µg/mL [4]	MIC [5]
CC1=C2OCCCCCN3C(=O)C(O)(c4cc(Br)ccc43)C2(C)SC1=O (stereo not given)	> 128 µM	-26%	10.1 µM	> 20 µM	-21.1%	
CC1=C(OCCCCCCN2C(=O)C(=O)c3ccccc32)C(C)SC1=O (stereo not given)	> 128 µM	27.7%	32 µM	12.3 µM	36.4%	
CC1=C2OCCCCN3C(=O)C(O)(c4cc(C)ccc43)C2(C)SC1=O (stereo not given)	> 128 µM	-0.6%	> 100 µM	> 20 µM	-0.4%	
CC1=C(OCCN2C(=O)C(=O)c3cc(F)ccc32)C(C)SC1=O (stereo not given)	> 128 µM	-29%	89.6 µM	> 20 µM	22%	
O=C1C(=O)N(CCCCBr)c2ccccc21	96.5 µM (≈ 27.2 µg/mL)		> 100 µM	> 20 µM		28.8 µM (≈ 8.13 µg/mL)
CC1=C2OCCCCCN3C(=O)C(O)(c4ccccc43)C2(C)SC1=O (stereo not given)	> 128 µM	21.9%	> 100 µM	> 20 µM	32.6%	
O=C1C(=O)N(CCCBr)c2ccccc21	> 128 µM		> 100 µM	> 20 µM		
O=C1C(=O)N(CCCCBr)c2ccc([N+](=O)[O-])cc21	> 128 µM		> 100 µM	> 20 µM		
O=C1C(=O)N(CCCCCCBr)c2ccc(Cl)cc21	29.7 µM (≈ 10.2 µg/mL)					31 µM (≈ 10.7 µg/mL)
O=C1C(=O)N(CCCCBr)c2ccc(Cl)cc21	30.5 µM (≈ 9.66 µg/mL)		> 100 µM	> 20 µM		30.5 µM (≈ 9.66 µg/mL)
CC1=C(O)SC(C)C1=O (stereo not given) [THIOLACTONE]	> 128 µM	-24.5%	> 100 µM	> 20 µM	-32.8%	
NNC(=O)c1ccncc1 [ISONIAZID]	0.37 µM (≈ 0.0507 µg/mL)					> 128 µM
CC1=C(OCCN2C(=O)C(=O)c3ccccc32)C(C)SC1=O (stereo not given)	> 128 µM	31.7%	40.2 µM	> 20 µM	34.7%	
O=C1C(=O)N(CCBr)c2ccccc21	> 128 µM		> 100 µM	> 20 µM		
CC1=C2OCCCCCCN3C(=O)C(O)(c4cc(Cl)ccc43)C2(C)SC1=O (stereo not given)	> 128 µM	-16%	> 100 µM	7.41 µM	-20%	
O=C1C(=O)N(CCCCBr)c2ccc(Br)cc21	30.5 µM (≈ 11 µg/mL)		> 100 µM	> 20 µM		37.7 µM (≈ 13.6 µg/mL)
CC1=C(OCCCCN2C(=O)C(=O)c3ccccc32)C(C)SC1=O (stereo not given)	> 128 µM	33.4%	> 100 µM	> 20 µM	42.6%	
O=C1C(=O)N(CCCCCCBr)c2ccc(F)cc21	62.3 µM (≈ 20.4 µg/mL)					31.5 µM (≈ 10.3 µg/mL)
Cc1ccc2c(c1)C(=O)C(=O)N2CCCCBr	62.7 µM (≈ 18.6 µg/mL)		> 100 µM	> 20 µM		53.2 µM (≈ 15.8 µg/mL)
CC1=C(OCCN2C(=O)C(=O)c3cc(I)ccc32)C(C)SC1=O (stereo not given)	> 128 µM	-3.2%	17.8 µM	> 20 µM	42%	
CC1=C(OCCN2C(=O)C(=O)c3cc(Cl)ccc32)C(C)SC1=O (stereo not given)	63.7 µM (≈ 22.4 µg/mL)	-2.8%	47.8 µM	> 20 µM	9.9%	117 µM (≈ 41.2 µg/mL)
O=C1C(=O)N(CCCCCBr)c2ccccc21	23.2 µM (≈ 6.87 µg/mL)	-22.1%	> 100 µM	> 20 µM	34.8%	44.4 µM (≈ 13.1 µg/mL)
CC1=C2OCCCCN3C(=O)C(O)(c4cc(I)ccc43)C2(C)SC1=O (stereo not given)	> 128 µM	4.9%	> 100 µM	> 20 µM	19.6%	
